From ChEMBL document CHEMBL1148510, “Synthesis and photocytotoxic activity of new chlorin-polyamine conjugates” (Bioorg Med Chem Lett, 2006) come the findings set out here.

Active and inactive are the calls of the source. The rule behind the calls is not given here.

The nature of data set [1]: Partition coefficient, Log P of the compound. It is filed as physicochemical. Conditions: octanol/water.
Data set [2] deals with K562. In words: Cytotoxicity against human K562 cells at 2 uM after 24 hrs in dark. The data set is classed as functional, cell-based.
The test system of data set [3] is K562. In words: Photocytotoxicity against human K562 cells at 2 uM. The data set is classed as functional, cell-based.

Consider `CN(CCCCNCCCCNC(=O)c1ccc(-c2c3nc(c(-c4ccc(C(=O)NCCCCNCCCCN(C)CCCNCCCN)cc4)c4ccc([nH]4)c(-c4ccc(C(=O)NCCCCNCCCN(C)CCCCNCCCN)cc4)c4ccc([nH]4)c(-c4ccc(C(=O)NCCCCNCCCN(C)CCCCNCCCN)cc4)c4nc2CC4)C=C3)cc1)CCCNCCCN`, for which, in data set [1], the logP is -1.98.

Regarding `C=Cc1c(C)c2cc3nc(c(CC(=O)NCCCCNCCCN(C)CCCCNCCCN)c4nc(cc5[nH]c(cc1[nH]2)c(C)c5CC)C(C)=C4C(=O)NCCCCNCCCN(C)CCCCNCCCN)[C@@H](CCC(=O)NCCNCCCN(C)CCCCNCCCN)[C@@H]3C`, the result in the data set on K562 [2] and in the data set on K562 [3] was Active. In data set [1], this compound returned a logP of -0.83.

As to `C=Cc1c(C)c2cc3nc(c(CC(=O)NCCCCNCCCN(C)CCCCN)c4nc(cc5[nH]c(cc1[nH]2)c(C)c5CC)C(C)=C4C(=O)NCCCCNCCCN(C)CCCCN)[C@@H](CCC(=O)NCCNCCCN(C)CCCCN)[C@@H]3C`, the result in the data set with K562 [2] and with K562 [3] was Active. In data set [1], the logP was -0.45.

`CN(CCCN)CCCCNCCCCNC(=O)c1ccc(-c2c3nc(c(-c4ccc(C(=O)NCCCCNCCCCN(C)CCCN)cc4)c4ccc([nH]4)c(-c4ccc(C(=O)NCCCCNCCCN(C)CCCCN)cc4)c4ccc([nH]4)c(-c4ccc(C(=O)NCCCCNCCCN(C)CCCCN)cc4)c4nc2CC4)C=C3)cc1`: in data set [1], the logP was -1.87.
